Molecules are shown by their SMILES. Starred links: 1 amine or outer side, 2 acyl side, 3 side chain; linkers in the order of their positions; H or OH if unused. Non-standard residues stand in square brackets, D forms with d. Residues, ends and D or L forms follow the SMILES beside them. Groups on a side chain read outwards from the residue. *: point of attachment. Ala(pyrazol-1-yl) = N[C@@H](Cn1cccn1)C(=O)O; Ala(4-thiazolyl) = N[C@@H](Cc1cscn1)C(=O)O; γGlu = O=C(O)[C@H](CCC(=O)[*:2])N[*:1]; X1 = O=C([C@H](Cn1cncn1)N[*:1])[*:2]; Palmitoyl = CCCCCCCCCCCCCCCC(=O)*; Aib = CC(C)(N)C(=O)O

Usually EC50 stands for the midpoint of the concentration-response curve.

In the first test the target is T1, human GLP-1R (Homo sapiens, UniProt P43220).
T1 construct: expressed in transfected cells
T1 sequence (P43220 24-463): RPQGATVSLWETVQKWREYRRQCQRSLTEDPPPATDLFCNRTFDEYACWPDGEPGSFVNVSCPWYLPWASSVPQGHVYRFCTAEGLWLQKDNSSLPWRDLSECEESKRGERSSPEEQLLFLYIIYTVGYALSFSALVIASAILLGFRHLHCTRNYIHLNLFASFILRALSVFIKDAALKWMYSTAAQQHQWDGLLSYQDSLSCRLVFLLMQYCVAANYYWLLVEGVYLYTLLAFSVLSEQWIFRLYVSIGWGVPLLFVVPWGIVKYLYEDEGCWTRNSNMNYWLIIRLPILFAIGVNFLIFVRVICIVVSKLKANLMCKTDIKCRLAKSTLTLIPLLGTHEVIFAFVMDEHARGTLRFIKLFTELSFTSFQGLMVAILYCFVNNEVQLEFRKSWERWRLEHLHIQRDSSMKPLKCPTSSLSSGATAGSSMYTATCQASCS
Put plainly: GLP-1 receptor efficacy assay (cAMP formation, FlashPlate cAMP kit). The conditions noted are these: HEK293 cells expressing human GLP-1R; cAMP formed, 15 min at 37° C. In kind it is cell-based. How it is done: (§1) The 5′-end primers additionally encoded a near Kozak consensus sequence to ensure efficient translation.
(§2) 48 hr after transfection, cells were seeded for limited dilution cloning and selected with 1 mg/ml G418 in the culture medium.
Turning to `CCCCCCCCCCCCCCCC(=O)N[C@@H](CCC(=O)NCCCC[C@H](NC(=O)[C@H](CO)NC(=O)[C@H](CC(=O)O)NC(=O)[C@H](CC(C)C)NC(=O)[C@H](Cc1ccc(O)cc1)NC(=O)[C@H](CCCCN)NC(=O)[C@H](CO)NC(=O)[C@H](Cc1ccc(O)cc1)NC(=O)[C@H](CC(=O)O)NC(=O)[C@H](CO)NC(=O)[C@@H](NC(=O)[C@H](Cc1ccccc1)NC(=O)[C@@H](NC(=O)CNC(=O)[C@H](Cc1c[nH]cn1)NC(=O)C(C)(C)NC(=O)[C@@H](N)Cc1c[nH]cn1)[C@@H](C)O)[C@@H](C)O)C(=O)N[C@@H](C)C(=O)N[C@@H](C)C(=O)N[C@@H](Cc1c[nH]cn1)C(=O)N[C@@H](CC(=O)O)C(=O)N[C@@H](Cc1ccccc1)C(=O)N[C@H](C(=O)N[C@@H](CCC(=O)O)C(=O)N[C@@H](Cc1c[nH]c2ccccc12)C(=O)N[C@@H](CC(C)C)C(=O)N[C@@H](CC(C)C)C(=O)N[C@@H](CO)C(=O)N[C@@H](C)C(N)=O)C(C)C)C(=O)O` [Compound 1] (H-H[Aib]HGTFTSDYSKYLDSK([γGlu-Palmitoyl])AAHDFVEWLLSA-NH2), the midpoint of the response, the EC50, lay at 0.21 nM.
Still for that read-out and setting: the result for `CCCCCCCCCCCCCCCC(=O)N[C@@H](CCC(=O)NCCCC[C@H](NC(=O)[C@H](CO)NC(=O)[C@H](CC(=O)O)NC(=O)[C@H](CC(C)C)NC(=O)[C@H](Cc1ccc(O)cc1)NC(=O)[C@H](CCCCN)NC(=O)[C@H](CO)NC(=O)[C@H](Cc1ccc(O)cc1)NC(=O)[C@H](CC(=O)O)NC(=O)[C@H](CO)NC(=O)[C@@H](NC(=O)[C@H](Cc1ccccc1)NC(=O)[C@@H](NC(=O)CNC(=O)[C@H](C)NC(=O)C(C)(C)NC(=O)[C@@H](N)Cc1c[nH]cn1)[C@@H](C)O)[C@@H](C)O)C(=O)N[C@@H](C)C(=O)N[C@@H](C)C(=O)N[C@@H](Cc1c[nH]cn1)C(=O)N[C@@H](CC(=O)O)C(=O)N[C@@H](Cc1ccccc1)C(=O)N[C@H](C(=O)N[C@@H](CCC(=O)O)C(=O)N[C@@H](Cc1c[nH]c2ccccc12)C(=O)N[C@@H](CC(C)C)C(=O)N[C@@H](CC(C)C)C(=O)N[C@@H](CO)C(=O)N[C@@H](C)C(N)=O)C(C)C)C(=O)O` [Compound 17] (H-H[Aib]AGTFTSDYSKYLDSK([γGlu-Palmitoyl])AAHDFVEWLLSA-NH2) reads 0.09 nM; that for `CCCCCCCCCCCCCCCC(=O)N[C@@H](CCC(=O)NCCCC[C@H](NC(=O)[C@H](CO)NC(=O)[C@H](CC(=O)O)NC(=O)[C@H](CC(C)C)NC(=O)[C@H](Cc1ccc(O)cc1)NC(=O)[C@H](CCCCN)NC(=O)[C@H](CO)NC(=O)[C@H](Cc1ccc(O)cc1)NC(=O)[C@H](CC(=O)O)NC(=O)[C@H](CO)NC(=O)[C@@H](NC(=O)[C@H](Cc1ccccc1)NC(=O)[C@@H](NC(=O)CNC(=O)[C@H](CO)NC(=O)C(C)(C)NC(=O)[C@@H](N)Cc1c[nH]cn1)[C@@H](C)O)[C@@H](C)O)C(=O)N[C@@H](C)C(=O)N[C@@H](C)C(=O)N[C@@H](Cc1c[nH]cn1)C(=O)N[C@@H](CC(=O)O)C(=O)N[C@@H](Cc1ccccc1)C(=O)N[C@H](C(=O)N[C@@H](CCC(=O)O)C(=O)N[C@@H](Cc1c[nH]c2ccccc12)C(=O)N[C@@H](CC(C)C)C(=O)N[C@@H](CC(C)C)C(=O)N[C@@H](CO)C(=O)N[C@@H](C)C(N)=O)C(C)C)C(=O)O` [Compound 18] (H-H[Aib]SGTFTSDYSKYLDSK([γGlu-Palmitoyl])AAHDFVEWLLSA-NH2), 0.09 nM.
Compound `CCCCCCCCCCCCCCCC(=O)N[C@@H](CCC(=O)NCCCC[C@H](NC(=O)[C@H](CO)NC(=O)[C@H](CC(=O)O)NC(=O)[C@H](CC(C)C)NC(=O)[C@H](Cc1ccc(O)cc1)NC(=O)[C@H](CCCCN)NC(=O)[C@H](CO)NC(=O)[C@H](Cc1ccc(O)cc1)NC(=O)[C@H](CC(=O)O)NC(=O)[C@H](CO)NC(=O)[C@@H](NC(=O)[C@H](Cc1ccccc1)NC(=O)[C@@H](NC(=O)CNC(=O)[C@H](Cc1cscn1)NC(=O)C(C)(C)NC(=O)[C@@H](N)Cc1c[nH]cn1)[C@@H](C)O)[C@@H](C)O)C(=O)N[C@@H](C)C(=O)N[C@@H](C)C(=O)N[C@@H](Cc1c[nH]cn1)C(=O)N[C@@H](CC(=O)O)C(=O)N[C@@H](Cc1ccccc1)C(=O)N[C@H](C(=O)N[C@@H](CCC(=O)O)C(=O)N[C@@H](Cc1c[nH]c2ccccc12)C(=O)N[C@@H](CC(C)C)C(=O)N[C@@H](CC(C)C)C(=O)N[C@@H](CO)C(=O)N[C@@H](C)C(N)=O)C(C)C)C(=O)O` [Compound 23] (H-H[Aib][Ala(4-thiazolyl)]GTFTSDYSKYLDSK([γGlu-Palmitoyl])AAHDFVEWLLSA-NH2) yielded an EC50 of 0.11 nM.
The same measure, in the same setting: the figure for `CCCCCCCCCCCCCCCC(=O)N[C@@H](CCC(=O)NCCCC[C@H](NC(=O)[C@H](CO)NC(=O)[C@H](CC(=O)O)NC(=O)[C@H](CC(C)C)NC(=O)[C@H](Cc1ccc(O)cc1)NC(=O)[C@H](CCCCN)NC(=O)[C@H](CO)NC(=O)[C@H](Cc1ccc(O)cc1)NC(=O)[C@H](CC(=O)O)NC(=O)[C@H](CO)NC(=O)[C@@H](NC(=O)[C@H](Cc1ccccc1)NC(=O)[C@@H](NC(=O)CNC(=O)[C@H](Cn1cncn1)NC(=O)C(C)(C)NC(=O)[C@@H](N)Cc1c[nH]cn1)[C@@H](C)O)[C@@H](C)O)C(=O)N[C@@H](C)C(=O)N[C@@H](C)C(=O)N[C@@H](Cc1c[nH]cn1)C(=O)N[C@@H](CC(=O)O)C(=O)N[C@@H](Cc1ccccc1)C(=O)N[C@H](C(=O)N[C@@H](CCC(=O)O)C(=O)N[C@@H](Cc1c[nH]c2ccccc12)C(=O)N[C@@H](CC(C)C)C(=O)N[C@@H](CC(C)C)C(=O)N[C@@H](CO)C(=O)N[C@@H](C)C(N)=O)C(C)C)C(=O)O` [Compound 25] (H-H[Aib][X1]GTFTSDYSKYLDSK([γGlu-Palmitoyl])AAHDFVEWLLSA-NH2) is 0.09 nM.
For `CCCCCCCCCCCCCCCC(=O)N[C@@H](CCC(=O)NCCCC[C@H](NC(=O)[C@H](CO)NC(=O)[C@H](CC(=O)O)NC(=O)[C@H](CC(C)C)NC(=O)[C@H](Cc1ccc(O)cc1)NC(=O)[C@H](CCCCN)NC(=O)[C@H](CO)NC(=O)[C@H](Cc1ccc(O)cc1)NC(=O)[C@H](CC(=O)O)NC(=O)[C@H](CO)NC(=O)[C@@H](NC(=O)[C@H](Cc1ccccc1)NC(=O)[C@@H](NC(=O)CNC(=O)[C@H](Cn1cccn1)NC(=O)C(C)(C)NC(=O)[C@@H](N)Cc1c[nH]cn1)[C@@H](C)O)[C@@H](C)O)C(=O)N[C@@H](C)C(=O)N[C@@H](C)C(=O)N[C@@H](Cc1c[nH]cn1)C(=O)N[C@@H](CC(=O)O)C(=O)N[C@@H](Cc1ccccc1)C(=O)N[C@H](C(=O)N[C@@H](CCC(=O)O)C(=O)N[C@@H](Cc1c[nH]c2ccccc12)C(=O)N[C@@H](CC(C)C)C(=O)N[C@@H](CC(C)C)C(=O)N[C@@H](CO)C(=O)N[C@@H](C)C(N)=O)C(C)C)C(=O)O` [Compound 28] (H-H[Aib][Ala(pyrazol-1-yl)]GTFTSDYSKYLDSK([γGlu-Palmitoyl])AAHDFVEWLLSA-NH2), it took 0.11 nM to reach a half-maximal effect (EC50).

The target of another test is T2, human glucagon-R (Homo sapiens, UniProt P47871).
T2 construct: expressed in transfected cells
T2 sequence (P47871 26-477): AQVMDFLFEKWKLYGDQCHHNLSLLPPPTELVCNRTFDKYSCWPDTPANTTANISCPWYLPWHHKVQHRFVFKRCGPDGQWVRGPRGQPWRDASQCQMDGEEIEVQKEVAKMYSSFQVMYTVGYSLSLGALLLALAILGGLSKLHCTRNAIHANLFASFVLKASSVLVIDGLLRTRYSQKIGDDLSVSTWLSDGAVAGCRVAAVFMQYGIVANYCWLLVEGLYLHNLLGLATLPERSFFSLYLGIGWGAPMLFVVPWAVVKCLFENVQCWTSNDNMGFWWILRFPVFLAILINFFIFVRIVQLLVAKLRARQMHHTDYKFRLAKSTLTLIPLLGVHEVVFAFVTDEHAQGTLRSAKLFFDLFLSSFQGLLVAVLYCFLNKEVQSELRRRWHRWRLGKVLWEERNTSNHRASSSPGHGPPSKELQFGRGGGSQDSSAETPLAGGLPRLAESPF
Put plainly: Glucagon receptor efficacy assay (cAMP formation, FlashPlate cAMP kit). In kind it is cell-based. The conditions noted are these: HEK293 cells expressing human glucagon-R; cAMP formed, 15 min at 37° C.; read-out: EC50 nM) GluR. How it is done:
as §1, §2
In general terms: Cyclic AMP is a second messenger, typically raised through Gs and lowered through Gi signalling.
On to `CCCCCCCCCCCCCCCC(=O)N[C@@H](CCC(=O)NCCCC[C@H](NC(=O)[C@H](CO)NC(=O)[C@H](CC(=O)O)NC(=O)[C@H](CC(C)C)NC(=O)[C@H](Cc1ccc(O)cc1)NC(=O)[C@H](CCCCN)NC(=O)[C@H](CO)NC(=O)[C@H](Cc1ccc(O)cc1)NC(=O)[C@H](CC(=O)O)NC(=O)[C@H](CO)NC(=O)[C@@H](NC(=O)[C@H](Cc1ccccc1)NC(=O)[C@@H](NC(=O)CNC(=O)[C@H](CCC(=O)O)NC(=O)C(C)(C)NC(=O)[C@@H](N)Cc1c[nH]cn1)[C@@H](C)O)[C@@H](C)O)C(=O)N[C@@H](C)C(=O)N[C@@H](C)C(=O)N[C@@H](Cc1c[nH]cn1)C(=O)N[C@@H](CC(=O)O)C(=O)N[C@@H](Cc1ccccc1)C(=O)N[C@H](C(=O)N[C@@H](CCC(=O)O)C(=O)N[C@@H](Cc1c[nH]c2ccccc12)C(=O)N[C@@H](CC(C)C)C(=O)N[C@@H](CC(C)C)C(=O)N[C@@H](CO)C(=O)N[C@@H](C)C(N)=O)C(C)C)C(=O)O` [Compound 7] (H-H[Aib]EGTFTSDYSKYLDSK([γGlu-Palmitoyl])AAHDFVEWLLSA-NH2), for which the EC50 came to 26 nM.
Take `CCCCCCCCCCCCCCCC(=O)N[C@@H](CCC(=O)NCCCC[C@H](NC(=O)[C@H](CO)NC(=O)[C@H](CC(=O)O)NC(=O)[C@H](CC(C)C)NC(=O)[C@H](Cc1ccc(O)cc1)NC(=O)[C@H](CCCCN)NC(=O)[C@H](CO)NC(=O)[C@H](Cc1ccc(O)cc1)NC(=O)[C@H](CC(=O)O)NC(=O)[C@H](CO)NC(=O)[C@@H](NC(=O)[C@H](Cc1ccccc1)NC(=O)[C@@H](NC(=O)[C@H](C)NC(=O)[C@H](CCC(N)=O)NC(=O)C(C)(C)NC(=O)[C@@H](N)Cc1c[nH]cn1)[C@@H](C)O)[C@@H](C)O)C(=O)N[C@@H](C)C(=O)N[C@@H](C)C(=O)N[C@@H](Cc1c[nH]cn1)C(=O)N[C@@H](CC(=O)O)C(=O)N[C@@H](Cc1ccccc1)C(=O)N[C@H](C(=O)N[C@@H](CCC(=O)O)C(=O)N[C@@H](Cc1c[nH]c2ccccc12)C(=O)N[C@@H](CC(C)C)C(=O)N[C@@H](CC(C)C)C(=O)N[C@@H](CO)C(=O)N[C@@H](C)C(N)=O)C(C)C)C(=O)O` [Compound 8] (H-H[Aib]QATFTSDYSKYLDSK([γGlu-Palmitoyl])AAHDFVEWLLSA-NH2): the EC50 came to 3 nM.
Take `CCCCCCCCCCCCCCCC(=O)N[C@@H](CCC(=O)NCCCC[C@H](NC(=O)[C@H](CO)NC(=O)[C@H](CC(=O)O)NC(=O)[C@H](CC(C)C)NC(=O)[C@H](Cc1ccc(O)cc1)NC(=O)[C@H](CCCCN)NC(=O)[C@H](CO)NC(=O)[C@H](Cc1ccc(O)cc1)NC(=O)[C@H](CC(=O)O)NC(=O)[C@H](CO)NC(=O)[C@@H](NC(=O)[C@H](Cc1ccccc1)NC(=O)[C@@H](NC(=O)CNC(=O)[C@@H](NC(=O)C(C)(C)NC(=O)[C@@H](N)Cc1c[nH]cn1)C(C)C)[C@@H](C)O)[C@@H](C)O)C(=O)N[C@@H](C)C(=O)N[C@@H](C)C(=O)N[C@@H](Cc1c[nH]cn1)C(=O)N[C@@H](CC(=O)O)C(=O)N[C@@H](Cc1ccccc1)C(=O)N[C@H](C(=O)N[C@@H](CCC(=O)O)C(=O)N[C@@H](Cc1c[nH]c2ccccc12)C(=O)N[C@@H](CC(C)C)C(=O)N[C@@H](CC(C)C)C(=O)N[C@@H](CO)C(=O)N[C@@H](C)C(N)=O)C(C)C)C(=O)O` [Compound 16] (H-H[Aib]VGTFTSDYSKYLDSK([γGlu-Palmitoyl])AAHDFVEWLLSA-NH2): the EC50 amounted to 3 nM.

These data come from US9169310B2 (Zealand Pharma A/S, priority 2010, dated 2015).
